Assay results published in the supplement of paper PMC6045584.
± gives the standard deviation of the averaged measurements.

Tests used:
[1] = compound: CCCCCCCCCCCCCCCC(=O)Nc1ccn([C@@H]2O[C@H](CO)[C@@H](O)[C@@H]2C#N)c(=O)n1 [SAPACITABINE]; assay: surviving fraction relative to DMSO-only wells; higher = less growth inhibition; conditions: exposure time: 5 days
Outline: (§1)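 Five days of continuous inhibitor exposure, at 0.5, 1, 5, 10, 50, 100, 500 and 1000 nM, followed a 24-hour period after log-phase tumour cell lines were seeded at 250–500 cells per well in 384-well plates. Surviving fraction was derived from CellTiter-Glo luminescence relative to the median of DMSO-only wells. Plates were read after 10 minutes at room temperature, and lines screened three times were kept only if replicate Pearson r >0.7 and median Z' >0.3.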

[2] = compound: CN(C)C/C=C/C(=O)Nc1cc2c(Nc3ccc(F)c(Cl)c3)ncnc2cc1O[C@H]1CCOC1 [AFATINIB]; assay: as above; conditions: exposure time: 5 days
Outline: as §1

| Test System | surviving fraction ([1]; 0.5 nM) | surviving fraction ([1]; 1 nM) | surviving fraction ([1]; 5 nM) | surviving fraction ([1]; 10 nM) | surviving fraction ([1]; 50 nM) | surviving fraction ([1]; 100 nM) | surviving fraction ([1]; 500 nM) | surviving fraction ([1]; 1000 nM) | surviving fraction ([2]; 0.5 nM) | surviving fraction ([2]; 1 nM) | surviving fraction ([2]; 5 nM) | surviving fraction ([2]; 10 nM) | surviving fraction ([2]; 50 nM) | surviving fraction ([2]; 100 nM) | surviving fraction ([2]; 500 nM) | surviving fraction ([2]; 1000 nM) |
| --- | --- | --- | --- | --- | --- | --- | --- | --- | --- | --- | --- | --- | --- | --- | --- | --- |
| SG28 HEADNECK | 0.756 ± 0.14 | 0.629 ± 0.18 | 0.721 ± 0.26 | 0.216 ± 0.099 | 0.996 ± 0.12 | 0.864 ± 0.054 | 0.934 ± 0.11 | 0.422 ± 0.0014 | 0.907 ± 0.056 | 0.828 ± 0.089 | 0.669 ± 0.083 | 0.523 ± 0.056 | 0.441 ± 0.052 | 0.452 ± 0.057 | 0.342 ± 0.029 | 0.259 ± 0.035 |
| LM7 BONE | 0.703 ± 0.044 | 0.708 ± 0.036 | 0.761 ± 0.015 | 0.641 ± 0.077 | 0.599 ± 0.037 | 0.4143 ± 0.0032 | 0.191 ± 0.036 | 0.162 ± 0.021 | 1.02 ± 0.049 | 1 ± 0.14 | 1.02 ± 0.074 | 1.07 ± 0.026 | 1.02 ± 0.026 | 0.914 ± 0.091 | 0.443 ± 0.051 | 0.169 ± 0.013 |
| MHM BONE | 0.975 ± 0.036 | 0.97 ± 0.058 | 0.978 ± 0.034 | 0.996 ± 0.028 | 0.951 ± 0.027 | 0.789 ± 0.043 | 0.305 ± 0.012 | 0.262 ± 0.03 | 1.022 ± 0.0067 | 1 ± 0.018 | 1.02 ± 0.016 | 1 ± 0.03 | 1.07 ± 0.028 | 1.03 ± 0.016 | 0.961 ± 0.041 | 0.883 ± 0.022 |
| SG31 HEADNECK | 0.933 ± 0.053 | 0.946 ± 0.043 | 0.814 ± 0.079 | 0.464 ± 0.015 | 0.919 ± 0.071 | 0.947 ± 0.16 | 0.792 ± 0.072 | 0.642 ± 0.033 | 0.967 ± 0.1 | 0.947 ± 0.046 | 0.62 ± 0.11 | 0.615 ± 0.18 | 0.515 ± 0.12 | 0.471 ± 0.13 | 0.528 ± 0.035 | 0.452 ± 0.054 |
| S68 BREAST | 0.821 ± 0.029 | 0.642 ± 0.021 | 0.675 ± 0.066 | 0.617 ± 0.094 | 0.64 ± 0.22 | 0.462 ± 0.039 | 0.296 ± 0.032 | 0.284 ± 0.02 | 0.958 ± 0.2 | 0.976 ± 0.33 | 0.735 ± 0.085 | 0.809 ± 0.14 | 0.656 ± 0.12 | 0.907 ± 0.14 | 0.478 ± 0.064 | 0.314 ± 0.055 |
| SAOS2 BONE | 0.806 ± 0.032 | 0.811 ± 0.019 | 0.875 ± 0.029 | 0.779 ± 0.057 | 0.776 ± 0.013 | 0.566 ± 0.071 | 0.199 ± 0.018 | 0.153 ± 0.017 | 1.15 ± 0.11 | 1.21 ± 0.067 | 1.15 ± 0.018 | 1.104 ± 0.0087 | 1.1 ± 0.013 | 1.06 ± 0.089 | 0.603 ± 0.0052 | 0.186 ± 0.034 |
| HS578T BREAST | 0.81 ± 0.081 | 0.76 ± 0.082 | 0.841 ± 0.024 | 0.899 ± 0.077 | 1.13 ± 0.1 | 0.987 ± 0.19 | 0.681 ± 0.061 | 0.668 ± 0.13 | 1.01 ± 0.096 | 0.937 ± 0.017 | 1.08 ± 0.13 | 1.12 ± 0.039 | 1.17 ± 0.13 | 1.02 ± 0.052 | 0.662 ± 0.054 | 0.243 ± 0.048 |
| CAL72 BONE | 0.986 ± 0.07 | 0.951 ± 0.041 | 0.91 ± 0.058 | 0.798 ± 0.13 | 0.559 ± 0.049 | 0.369 ± 0.12 | 0.181 ± 0.039 | 0.128 ± 0.027 | 1.09 ± 0.021 | 1.02 ± 0.061 | 1.07 ± 0.018 | 1.06 ± 0.042 | 1.11 ± 0.011 | 1.1 ± 0.036 | 0.984 ± 0.031 | 0.893 ± 0.053 |
| MFM223 BREAST | 0.839 ± 0.092 | 0.82 ± 0.11 | 0.83 ± 0.089 | 0.8 ± 0.045 | 0.933 ± 0.12 | 0.939 ± 0.026 | 0.903 ± 0.074 | 0.77 ± 0.1 | 1.13 ± 0.076 | 1.16 ± 0.11 | 1.13 ± 0.097 | 1.13 ± 0.031 | 1.11 ± 0.086 | 1.04 ± 0.1 | 0.803 ± 0.059 | 0.365 ± 0.021 |
| H23 LUNG | 0.891 ± 0.02 | 0.894 ± 0.025 | 0.916 ± 0.028 | 0.924 ± 0.015 | 0.868 ± 0.051 | 0.668 ± 0.024 | 0.301 ± 0.013 | 0.264 ± 0.014 | 0.887 ± 0.035 | 0.817 ± 0.048 | 0.507 ± 0.024 | 0.42 ± 0.015 | 0.387 ± 0.018 | 0.368 ± 0.029 | 0.355 ± 0.021 | 0.288 ± 0.002 |
| DU4475 BREAST | 0.637 ± 0.062 | 0.863 ± 0.13 | 0.743 ± 0.051 | 0.699 ± 0.12 | 0.655 ± 0.077 | 0.458 ± 0.049 | 0.16 ± 0.033 | 0.0713 ± 0.018 | 1.05 ± 0.26 | 1.08 ± 0.31 | 0.851 ± 0.034 | 1.11 ± 0.25 | 1.17 ± 0.15 | 0.997 ± 0.089 | 1.08 ± 0.25 | 0.788 ± 0.042 |
